Data taken from patent US7455860B2, “Dietary supplement formulation for controlling inflammation and cancer” (Laila Nutraceuticals, priority 2005, dated 2008).
“And” between values parts separate entries of the source, which are not always exact repeats. Equal values may be shown once.

Key:
[1] = system: Freund's Adjuvant-Induced Arthritis; experiment: Freund's Adjuvant-Induced Arthritis in Wistar Albino rats (paw volume by Plethysmograph); type: in vivo
Protocol: Effect of 5-LOXIN compositions on Freund's Adjuvant-Induced Arthritis in Winstar Albino rats: Wistar Albino rats of either sex were selected randomly and divided into groups containing 6 rats (3 male and 3 female) each. The rats of treatment groups were administered orally a suspension of 5-LOXIN (15 mg/kg, p.o.) or glucosamine salt (135 mg/kg, p.o.) or curcuminoids (20 mg/kg, p.o.) or ginger (3 mg/kg, p.o.) or one fifth of a formulation containing unit doses of all the four ingredients [formulation I: 5-LOXIN (15 mg)+glucosamine (135 mg)+curcuminoids DP 95% (20 mg)+Ginger DP 15% total pungent compounds (3 mg)]or prednisolone (10 mg/kg, p.o.) in 0.5% CMC, for 30 days. The control group received 0.5% CMC. Following the drug treatment all animals were challenged, on 31st day, with 50 μl of complete Freund's adjuvant injection to the sub plantar region of right hind paw. The paw volume was measured before (V0) and after the injection of Freund's adjuvant at the end of 30, 60, 120, 180, 240 and 360 min by Plethysmograph. The paw oedema was measured everyday upto 17th day.

degenerative arthritis = conditions: treatment group; 20% in placebo group; cited from earlier work

| Compound | % protection ([1]; day 13, against control group mean oedema 0.478) [%] | Day-13 E, ME (mean oedema of the group) ([1]; group mean, oral treatment for 30 days) [mL] | Paw Volume After Freund's Adjuvant, Day-13 E (oedema) ([1]; individual rat, Day-13 PV minus 0 hr, oral treatment for 30 days, hydrochloride) | Paw Volume After Freund's Adjuvant, Day-13 PV ([1]; individual rat, oral treatment for 30 days, adjuvant on 31st day, read on day 13, dose per sample in table, hydrochloride) | Improvement in degenerative arthritis (degenerative arthritis) [%] |
| --- | --- | --- | --- | --- | --- |
| Cl.N[C@H]1C(O)O[C@H](CO)[C@@H](O)[C@@H]1O (some centres unmarked) [Glucosamine, glucosamine hydrochloride] | 37.94 | 0.30 | 0.37 mL and 0.3 mL and 0.22 mL | 1.56 mL and 1.59 mL and 1.53 mL |  |
| CS(C)(=O)=O [MSM, Methylsulfonylmethane] |  |  |  |  | 80 |
